{"source": "patent US20060281897A1", "about": "“Potentialization of the activation of high molecular weight prodrugs” (priority 2003, published 2006)", "key": {"[1]": {"test_system": "LS-174T human tumor xenografts", "test": "Efficacy study in LS-174T human colon carcinoma xenograft model", "details": "for body weight loss: as of the second week of weekly i.v. treatment; for T/C min / specific growth delay (SGD): LS-174T, Suc-beta-ALAL-Dox 50 μmol/kg, PEG2000-(DSer)4-ALAL-Dox 1×50+3×35 μmol/kg, i.v. days 0, 7, 14, 21", "protocol": "The experimental chemotherapy studies were carried out on athymic mice that carried LS-174T or HCT 116 (colon carcinomas) tumors of human origin previously grafted subcutaneously.\nThe mice were selected and distributed into the different groups of the study so as to have equal distributions of tumor volumes. The different treatments were randomly assigned to the groups so formed.\nTreatments were administered intravenously in the caudal vein. During these injections, the animals received a constant volume of 10 μl/g of product (Workman et al., 1998). After the injection, the clinical signs were duly followed (each hour during the first day, and daily until the end of the study), as well as the weight that was measured at the same time as the tumor volume (mm^3). The growth of the tumor was monitored 2× per week by measuring, with the aid of a caliper, two perpendicular diameters (or “diagonals”) of the tumor (the largest and the smallest “diagonal”).\nTo determine the variations of the tumor volume of the different groups, the median of the relative tumor volumes (RTV for “relative tumor volume”) that express in percent the variations of the medians of the tumor volumes relative to day 0 was calculated. To estimate the effect of the various treatments, the inhibition of the growth was determined by calculating the ratio between the median of the RTV of the treated groups (T) and that of control group (C) that is expressed by percentage (T/C(%)).\nThe lowest value of the T/C ratio was used as a parameter to estimate the maximum efficacy of the products that were evaluated.\nThe Specific Growth Delay (SGD) was also calculated as (DTtreated−DTcontrol)/(DTcontrol).\nFor these reasons, growth delays (T-C) and specific growth delays (SGD) were calculated from linear regressions of different phases that characterize the growth of the tumors.\nThe products were injected intravenously (10 μl/g, 6 mice per group).\nThe administered doses were reduced starting from day 7."}, "[2]": {"details": "37° C.", "method": "The samples were incubated at 37° C. An extraction (for extraction method with acetonitrile, see Item 7.3 below) of each product was carried out in triplicate at time 0 and after 1, 2, 4 and 6 hours of incubation.\n10 μl of internal standard (prolyl-daunorubicin) and […] 150 μl of acetonitrile were added into tubes containing 50 μl of the sample to be extracted. The tubes were stirred and centrifuged for 10 minutes to 13000 g. The supernatant was diluted 4 times in a formate buffer, pH 4, centrifuged, then analyzed by HPLC (see Item 7.3 below).\nAt different time points, the concentrations of the conjugates and possible metabolites formed were evaluated by HPLC. FIG. 7 illustrates the variations of the concentration of products based on the incubation time."}, "MCF-7/6 cells": {"test_system": "MCF-7/6 cells", "test": "Cytotoxicity test (WST-1 cell viability)", "assay_type": "cell-based, human", "details": "read-out: IC50 (50% inhibiting concentration), 48 hours incubation + 24 hours drug-free post-incubation", "protocol": "The cytotoxicity tests of doxorubicin and derivatives were carried out with MCF-7/6 cells and LNCaP cells.\nThe cells were collected by trypsinization, counted, and then inoculated in 96-well plates in 200 μl of serum-containing medium.\nThe cells were incubated for 24 hours at 37° C. before the addition of the products to be tested:\ndiluted to various concentrations in the serum-containing culture medium. After an incubation of 48 hours in the presence of various compounds, the cells were finally post-incubated at 37° C. for 24 hours in the presence of drug-free serum-containing medium. After this incubation period, a cell viability test was carried out (WST-1, Roche Molecular Biochemical, Mannheim, Germany).\nThey were then post-incubated for 24 hours in drug-free serum containing medium. The cytotoxicity of the products was estimated by a cell viability test (WST-1, Roche Molecular Diagnostic, Mannheim, Germany)."}, "[3]": {"test_system": "LS-174T human colon cancer xenografts", "test": "In vivo tumor reactivation of PEGylated prodrug derivatives (Dox and Leu-Dox accumulated in tumor)", "details": "i.v. bolus 69 μmol/kg, LS-174T tumor"}, "[4]": {"test_system": "HCT-116 human colon carcinoma xenograft", "test": "Chemotherapy study in HCT-116 human colon carcinoma xenograft model", "assay_type": "in vivo, mice", "description": "The anti-tumor efficacy of PEG2000-(DSer)4-ALAL-Dox was compared to that of succinyl-βALAL-Dox in an HCT-116 human colon carcinoma xenograft model that was implanted subcutaneously in Swiss nude/nude mice. The animals received 5 i.v. bolus injections (for 5 consecutive days) of succinyl-βALAL-Dox at 30 μmol/kg or PEG2000-(DSer)4-ALAL-Dox at 53 and 110 μmol/kg (6 mice/group). […] The results of FIG. 8 show the variations of the body weight of the animals. […] The anti-tumor efficacy is shown by the T/C curve that comprises two phases (FIG. 9). […] In the second phase, the activity of the PEGylated derivative (110 μmol/kg) decreased relative to that of succinyl-PALAL-Dox. […] The MTD of the PEGylated derivative was not reached in this study.\nThe anti-tumor efficacy of PEG2000-(DSer)4-ALAL-Dox was compared to that of PEG2000-ALAL-Dox in an HCT-116 human colon carcinoma xenograft model implanted subcutaneously in Swiss nude/nude mice. The animals received 5 i.v. bolus injections (for 5 consecutive days) of the compounds at doses of 200, 300, and 400 μmol/kg (5 mice/group). Contrary to PEG2000-ALAL-Dox, PEG2000-(DSer)4-ALAL-Dox was toxic at 300 and 400 μmol/kg and induced a weight loss and the death of the animals (FIG. 10)."}, "[5]": {"details": "1×50+3×35 μmol/kg vs doxorubicin 6.69 μmol/kg"}}, "note": "Square brackets hold non-standard residues; d marks the D form.", "data": [{"compound": "COc1cccc2c1C(=O)c1c(O)c3c(c(O)c1C2=O)C[C@@](O)(C(=O)CO)C[C@@H]3O[C@H]1C[C@H](N)[C@H](O)[C@H](C)O1", "note": "[doxorubicin, reference compound]", "values": [{"measurement": "body weight loss", "setting": "[1]", "value": "no significant weight loss"}]}, {"compound": "COc1cccc2c1C(=O)c1c(O)c3c(c(O)c1C2=O)CC(O)(C(=O)CO)CC3OC1CC(NC(=O)C(CC(C)C)NC(=O)C(C)NC(=O)C(CC(C)C)NC(=O)C(C)N)C(O)C(C)O1", "note": "(stereo not drawn) [ALAL-Dox, Ala-Leu-Ala-Leu-doxorubicin, reference compound]", "values": [{"measurement": "stability in blood", "setting": "[2]; 20 μM in citrated human blood", "value": "not stable in blood"}, {"measurement": "starting product degraded in Leu-Dox and Dox", "setting": "[2]; after 1 hour, whole human blood", "value": 80, "unit": "%"}]}, {"compound": "PEG2000-(DSer)4-beta-Ala-Leu-Ala-Leu-doxorubicin [PEG2000-(DSer)4-beta-ALAL-Dox]", "values": [{"measurement": "IC50", "setting": "MCF-7/6 cells", "value": 251, "unit": "µM"}]}, {"compound": "PEG2000-beta-Ala-Leu-Ala-Leu-doxorubicin [PEG2000-beta-ALAL-Dox]", "values": [{"measurement": "IC50", "setting": "MCF-7/6 cells", "value": "> 500", "unit": "µM"}]}, {"compound": "COc1cccc2c1C(=O)c1c(O)c3c(c(O)c1C2=O)CC(O)(C(=O)CO)CC3OC1CC(NC(=O)C(CC(C)C)NC(=O)C(C)NC(=O)C(CC(C)C)NC(=O)CCNC(=O)CCC(=O)O)C(O)C(C)O1", "note": "(stereo not drawn) [Suc-beta-ALAL-Dox, succinyl-beta-Ala-Leu-Ala-Leu-doxorubicin, reference compound]", "values": [{"measurement": "T/C min", "setting": "[1]", "value": 26.6, "unit": "%"}, {"measurement": "specific growth delay (SGD)", "setting": "[1]", "value": 3.02}, {"measurement": "body weight loss", "setting": "[1]", "value": "slight weight loss"}, {"measurement": "maximum weight loss", "setting": "[1]; day 32, 45 and 50 μmol/kg groups", "value": 10, "unit": "%"}, {"measurement": "DOX concentration in tumor", "setting": "[3]; 2 hours after injection", "value": 1.93, "unit": "nmol/mg"}, {"measurement": "Leu-DOX concentration in tumor", "setting": "[3]; 2 hours after injection", "value": 4.64, "unit": "nmol/mg"}, {"measurement": "DOX concentration in tumor", "setting": "[3]; 72 hours after injection", "value": 5.41, "unit": "nmol/mg"}, {"measurement": "Leu-DOX concentration in tumor", "setting": "[3]; 72 hours after injection", "value": 0.05, "unit": "nmol/mg"}, {"measurement": "body weight loss", "setting": "[4]; 30 μmol/kg ×5 i.v., end of the study, day 49", "value": "about 20%"}]}, {"compound": "PEG2000-(DSer)4-Ala-Leu-Ala-Leu-doxorubicin (PEG2000-[dS][dS][dS][dS]ALAL-doxorubicin) [PEG2000-(DSer)4-ALAL-Dox]", "values": [{"measurement": "activity during the first growth phase", "setting": "[1]; [5]", "value": "comparable to that of doxorubicin"}, {"measurement": "activity during the second growth phase", "setting": "[1]; [5]", "value": "more active than doxorubicin and as active as Suc-beta-ALAL-Dox"}, {"measurement": "T/C min", "setting": "[1]", "value": 38, "unit": "%"}, {"measurement": "specific growth delay (SGD)", "setting": "[1]", "value": "1,58"}, {"measurement": "body weight loss", "setting": "[1]", "value": "no significant weight loss"}, {"measurement": "deaths", "setting": "[1]; initial i.v. bolus at 50 μmol/kg and 45 μmol/kg, 6 mice per group", "value": "One death"}, {"measurement": "hydrolysis: Dox formed", "setting": "[2]; at 6 hours, whole human blood", "value": 5, "unit": "%"}, {"measurement": "hydrolysis: L-Dox (Leu-Dox) formed", "setting": "[2]; at 6 hours, whole human blood", "value": 5, "unit": "%"}, {"measurement": "anti-tumor effect", "setting": "[4]; 53 μmol/kg ×5 i.v.", "value": "induced a tumor regression for the week of treatment"}, {"measurement": "toxicity", "setting": "[4]; 53 and 110 μmol/kg, 5 i.v. bolus injections", "value": "no toxicity"}, {"measurement": "toxicity (weight loss and death of the animals)", "setting": "[4]; 300 and 400 μmol/kg, 5 i.v. bolus injections on 5 consecutive days", "value": "toxic"}, {"measurement": "anti-tumor efficacy", "setting": "[4]; equimolar non-toxic dose 200 μmol/kg ×5 i.v.", "value": "better anti-tumor efficacy than that of PEG2000-ALAL-Dox"}, {"measurement": "maximum tolerated dose (MTD)", "setting": "[4]; up to 110 μmol/kg ×5 i.v.", "value": "not reached"}]}]}
